Test results as given in US20250263415A1, “TERTIARY AMIDE DERIVATIVES SUBSTITUTED WITH 4-MEMBERED RING STRUCTURE” (Sumitomo Pharma Co., Ltd., priority 2024, published 2025).

Experiments:
recombinant p300 = recombinant p300 (Homo sapiens (Human), UniProt Q09472); test: HAT activity inhibition experiment (SensoLyte HAT(p300) Assay Kit); type: biochemical
Protocol: The HAT activity inhibitory ability of HAT inhibitors was evaluated using SensoLyte HAT(p300) Assay Kit (ANASPEC, AS-72172). Specifically, 7.5 μL of the compound of Examples […] diluted with assay buffer was added to 7.5 μL of recombinant p300 solution diluted 10 times with assay buffer, and the mixture was incubated at room temperature for 10 minutes. 7.5 μL of acetyl CoA solution diluted 10 times with assay buffer and 15 μL of histone H3 peptide diluted 10 times with assay buffer were added thereto, and the mixture was incubated at 37° C. for 30 minutes. 37.5 μL of Stop Solution was added to stop the reaction. 75 μL of p300 Developer solution diluted 50 times with assay buffer was added, and the mixture was incubated at room temperature for 30 minutes under light-shielded conditions. The fluorescence at 513 nm when irradiated with 389 nm excitation light was measured using a multiplate reader.

G-401 cells = test: Cell proliferation inhibition experiment using G-401 cells; type: cell-based
Protocol: G-401 cells (derived from malignant rhabdoid tumor) were obtained from the American Type Culture Collection (ATCC). G-401 cells were cultured in McCoy's 5A medium containing 10% fetal bovine serum and 1% penicillin/streptomycin under conditions of 37° C. and 5% CO2.
500 cells per well were seeded in a 384-well plate. One day after seeding, Examples 1 to 35 were added so that the final concentration of DMSO was 0.1%, and the cells were cultured for 3 days. After the culture was completed, the cell viability was measured using CellTiter-Glo Luminescent Cell Viability Assay (Promega, G7570).

recombinant p300, sequence (Q09472 whole entry): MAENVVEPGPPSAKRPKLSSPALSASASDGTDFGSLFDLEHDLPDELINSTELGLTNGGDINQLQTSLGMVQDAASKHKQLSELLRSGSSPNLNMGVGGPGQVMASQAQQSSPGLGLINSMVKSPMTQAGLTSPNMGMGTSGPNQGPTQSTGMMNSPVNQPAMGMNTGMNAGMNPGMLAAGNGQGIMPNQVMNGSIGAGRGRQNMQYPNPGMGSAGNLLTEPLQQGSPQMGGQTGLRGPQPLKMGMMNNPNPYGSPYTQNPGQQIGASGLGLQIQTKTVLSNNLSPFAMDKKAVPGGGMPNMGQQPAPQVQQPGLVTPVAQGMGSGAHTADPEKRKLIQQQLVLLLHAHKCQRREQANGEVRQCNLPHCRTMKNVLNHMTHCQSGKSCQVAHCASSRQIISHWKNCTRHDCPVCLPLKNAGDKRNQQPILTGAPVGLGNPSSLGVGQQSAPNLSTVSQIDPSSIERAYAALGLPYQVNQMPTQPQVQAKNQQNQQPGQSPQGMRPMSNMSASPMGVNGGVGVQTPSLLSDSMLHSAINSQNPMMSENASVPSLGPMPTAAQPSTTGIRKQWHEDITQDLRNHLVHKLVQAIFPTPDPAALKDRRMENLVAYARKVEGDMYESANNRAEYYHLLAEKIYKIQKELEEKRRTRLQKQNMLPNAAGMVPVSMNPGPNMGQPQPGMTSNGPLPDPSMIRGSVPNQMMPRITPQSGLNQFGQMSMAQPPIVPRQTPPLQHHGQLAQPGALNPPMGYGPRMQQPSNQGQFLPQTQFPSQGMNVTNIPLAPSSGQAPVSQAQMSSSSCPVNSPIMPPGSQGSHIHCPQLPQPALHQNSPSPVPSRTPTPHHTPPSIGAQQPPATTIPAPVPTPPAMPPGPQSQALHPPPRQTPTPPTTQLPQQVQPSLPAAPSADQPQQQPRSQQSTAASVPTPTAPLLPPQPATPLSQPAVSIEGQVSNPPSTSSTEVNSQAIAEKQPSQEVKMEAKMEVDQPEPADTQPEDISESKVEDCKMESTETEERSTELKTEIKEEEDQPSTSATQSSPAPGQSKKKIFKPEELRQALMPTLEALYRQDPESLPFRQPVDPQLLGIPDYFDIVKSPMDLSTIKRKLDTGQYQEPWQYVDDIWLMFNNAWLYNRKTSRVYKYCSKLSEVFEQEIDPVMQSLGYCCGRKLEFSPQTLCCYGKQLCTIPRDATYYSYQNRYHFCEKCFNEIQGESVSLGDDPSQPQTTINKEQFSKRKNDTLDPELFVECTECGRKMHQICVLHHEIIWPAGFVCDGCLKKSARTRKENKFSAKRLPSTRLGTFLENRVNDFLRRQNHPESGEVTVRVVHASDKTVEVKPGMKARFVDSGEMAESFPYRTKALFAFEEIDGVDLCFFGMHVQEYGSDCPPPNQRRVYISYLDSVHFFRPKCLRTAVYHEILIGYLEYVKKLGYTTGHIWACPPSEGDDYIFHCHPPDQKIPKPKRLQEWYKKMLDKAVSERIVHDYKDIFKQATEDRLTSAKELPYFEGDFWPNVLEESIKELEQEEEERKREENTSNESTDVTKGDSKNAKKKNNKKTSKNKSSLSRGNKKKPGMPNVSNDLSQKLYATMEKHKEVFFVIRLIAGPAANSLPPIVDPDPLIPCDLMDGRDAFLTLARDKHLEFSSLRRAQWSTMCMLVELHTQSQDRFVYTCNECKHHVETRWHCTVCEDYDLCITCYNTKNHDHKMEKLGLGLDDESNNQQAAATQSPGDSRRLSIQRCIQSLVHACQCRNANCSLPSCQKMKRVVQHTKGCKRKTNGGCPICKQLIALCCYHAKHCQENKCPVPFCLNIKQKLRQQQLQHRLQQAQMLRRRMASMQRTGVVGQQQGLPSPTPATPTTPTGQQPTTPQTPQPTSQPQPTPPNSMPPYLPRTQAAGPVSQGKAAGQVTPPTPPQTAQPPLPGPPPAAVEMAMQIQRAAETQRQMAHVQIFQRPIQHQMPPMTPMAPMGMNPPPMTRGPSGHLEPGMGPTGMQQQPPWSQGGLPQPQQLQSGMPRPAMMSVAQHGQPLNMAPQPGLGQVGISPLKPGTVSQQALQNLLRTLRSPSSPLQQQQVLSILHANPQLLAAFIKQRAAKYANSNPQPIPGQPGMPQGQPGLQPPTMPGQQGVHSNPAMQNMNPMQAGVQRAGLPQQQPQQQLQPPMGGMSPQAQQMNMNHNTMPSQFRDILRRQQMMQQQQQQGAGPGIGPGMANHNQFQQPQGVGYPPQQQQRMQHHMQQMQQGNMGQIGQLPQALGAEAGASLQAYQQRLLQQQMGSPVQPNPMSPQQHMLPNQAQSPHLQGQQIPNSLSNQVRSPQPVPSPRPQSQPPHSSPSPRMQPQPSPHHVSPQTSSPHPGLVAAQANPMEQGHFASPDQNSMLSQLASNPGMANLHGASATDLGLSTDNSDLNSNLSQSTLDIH

Row | SMILES | HAT activity inhibition (in words) (recombinant p300) | Cell proliferation inhibitory effect on G-401 cells (in words) (G-401 cells)
1 | CN1CC(N(Cc2ccc(F)cc2)C(=O)CN2C(=O)N[C@]3(C[C@@H](F)c4cc(-c5cnn(C)c5F)ccc43)C2=O)(C(F)(F)F)C1 [Example 15, 2-[(1′S,3′R)-3′-fluoro-5′-(5-fluoro-1-methyl-1H-pyrazol-4-yl)-2,5-dioxo-2′,3′-dihydrospiro[imidazolidine-4,1′-inden]-1-yl]-N-[(4-fluorophenyl)methyl]-N-[1-methyl-3-(trifluoromethyl)azetidin-3-yl]acetamide] | strong inhibition of HAT activity | strong cell proliferation inhibitory effect
2 | CN1CC(N(Cc2ccc(F)cc2)C(=O)CN2C(=O)N[C@]3(C[C@@H](F)c4cc(-c5cn(C)nc5F)ccc43)C2=O)(C(F)(F)F)C1 [Example 17, 2-[(1′S,3′R)-3′-fluoro-5′-(3-fluoro-1-methyl-1H-pyrazol-4-yl)-2,5-dioxo-2′,3′-dihydrospiro[imidazolidine-4,1′-inden]-1-yl]-N-[(4-fluorophenyl)methyl]-N-[1-methyl-3-(trifluoromethyl)azetidin-3-yl]acetamide] | strong inhibition of HAT activity | strong cell proliferation inhibitory effect
